What was measured:
5HT2A receptor = biological target: T1, 5HT2A receptor (Homo sapiens, UniProt P28223); assay: In vitro bioactivity: calcium flux (Fluo-8) in 5HT2A serotonin receptor cells; format: cell-based; settings: 5 μM, 1 hr treatment, versus PBS control
T1 construct: host or cells: Chem-1 cells (parental control HTSCHEM-1RTA)
Description: Briefly, 5HT2A serotonin receptor cells (Millipore Sigma, HTS082RTA) and chem-1 parental control cells (Millipore Sigma, HTSCHEM-1RTA) were seeded in 96 well plates (5000 cells-100 μl/well of 50,000 cells/ml solution) and allowed to adhere overnight. […] After 1 hr, Fluo-8 green dye solution (Abcam, ab112129) was added to the cells, incubated 30 min at 37° C., and then incubated for 30 minutes at room temperature, followed by fluorescence measurements on a microplate reader.

[1] = In vitro release from single-layered CAPP films; format: physicochemical; settings: for release rate compared with Rhodamine dye: from 0.1 mm thick CAPP films
Description: Next, drug release from single-layered CAPP films of 0.1, 0.2, 0.3, and 0.4 mm thickness was quantified. Drug release was measured by encapsulating Rhodamine fluorescent dye within the films and closely matched the erosion times reported above. Complete release from 0.1 mm thick films occurred after ˜18 hrs (FIG. 4A). Complete release from 0.2 mm thick films occurred after ˜36 hrs (FIG. 4A). Complete release from 0.3 mm thick films occurred after ˜60 hrs (FIG. 4A). Complete release from 0.4 mm thick films occurred after ˜78 hrs (FIG. 4A). Importantly, release of 5HT2A agonists from 0.1 mm thick CAPP films was also measured, since 0.1 mm thick films are used to encapsulate drug in the multilayered films.

[2] = Follow-up plasma and organ pharmacokinetics of DOI from subcutaneously implanted 0.1 mm CAPP films; format: in vivo, CD-1 mice; settings: post-implantation of 0.1 mm thick CAPP films, subcutaneous
Text: (§1) Single-layered films loaded with DOI and blank single-layered films have been constructed. These films were sterilized and implanted subcutaneously in the dorsal flap of CD-1 mice in an initial pilot experiment. This pilot experiment enabled optimization of blood collection time points, ensure the ability to detect DOI with current bioanalytical techniques, and will inform the design of the rest of the in vivo studies. Briefly, films were implanted subcutaneously followed by blood and organ collection at 8, 16, and 24 hrs to monitor blood pharmacokinetics of DOI released from the 0.1 mm thick CAPP films in vivo. […] The concentration of DOI in the blood of mice returned to baseline by 16 hrs and remained at baseline through 24 hrs. […] This pilot experiment was repeated to: 1) sample at earlier time points for better overall fidelity and 2) to also determine the concentration of DOI in major organs, particularly the brain. […] As expected based on the plasma pharmacokinetics, it was observed that the peak concentration of DOI in the brain, liver, and kidneys was ˜2-4 hrs (FIGS. 13C-13F). DOI was cleared from the plasma as well as the brain, liver, and kidneys by ˜12 hrs post-implantation. The release profile of the same dose of DOI from 0.4 mm thick films can also be measured, as can the release profile of DOI from multilayered CAPP films with three DOI-loaded 0.1 mm thick films separated by 0.4 mm thick blank films.

[3] = Pilot pharmacokinetics of DOI from subcutaneously implanted 0.1 mm CAPP films; format: in vivo; settings: DOI-loaded 0.1 mm CAPP film, subcutaneous, CD-1 mice
Text: as §1, with “DOI was cleared from the plasma as well as the brain, liver, and kidneys by ˜12 hrs post-implantation.” left out

[4] = Pulsed delivery of DOI from subcutaneously implanted multilayer CAPP films coated with PSA; format: in vivo; settings: seven-layer CAPP film, subcutaneous
Text: The multilayered CAPP films used for this study had seven layers, where layers 1, 4, and 7 were DOI-loaded 0.1 mm thick CAPP films at 70:30 CAP:P ratio and layers 2, 3, 5, and 6 were unloaded (Blank) 0.4 mm thick CAPP films at 90:10 CAP:P ratio. The layered devices were then coated on all sides but one (the top of layer 1) with the biocompatible polymer polysebacic acid (PSA). After implantation, the anticipated pulsed release schedule of DOI was observed, with three distinct DOI pulses where peak concentrations in the plasma occurred at ˜2, 12, and 24 hrs post-implantation.

[5] = In vitro release kinetics from multilayered CAPP films (Rhodamine as model drug); format: physicochemical
Text: The layering strategy (i.e., alternating 0.1 mm and 0.4 mm films) was chosen based on the results in FIGS. 4A-4B showing that 0.1 mm films erode in ˜24 hrs while 0.4 mm films erode in ˜70-80 hrs. Additionally, each layer was engineered to degrade by either bulk or surface erosion based on the function of that particular layer. The drug-loaded, 0.1 mm thick layers should degrade via bulk erosion such that the drug is rapidly released from these layers in a bolus. However, the “blank” 0.4 mm layers should erode via surface erosion to ensure gradual degradation of the blank layer from “top-to-bottom” to maintain ordered pulses of release over time. Therefore, the absorption of water into polymeric films composed of a range of CAP:P ratios was examined, since bulk erosion occurs in materials where the rate of water absorption is greater than the degradation rate. By contrast, surface erosion occurs in materials where the rate of degradation is greater than the rate of water absorption into the material. […] Therefore, multilayered films with 0.1 mm drug-loaded layers composed of 70:30 (bulk-eroding) CAPP films and 0.4 mm blank layers composed of 90:10 (surface eroding) CAPP films were produced. Lastly, the erosion time for CAPP films of CAP:P ratios varying from 70:30-90:10 was examined to inform the construction of multilayer devices that are to be composed of both 70:30 and 90:10 CAPP films. […] As film thickness increases, erosion time of the films increases proportionally.
We constructed multilayer CAPP films of alternating 0.1 mm bulk eroding, drug-loaded layers and 0.4 mm surface eroding, blank layers and observed drug release kinetics from these films using Rhodamine as a model drug. […] However, in these preliminary results the third drug pulse is not obvious and the gaps between pulses have some variability. A new layering design was implemented to counter these shortcomings; including adding two “blank” layers between each drug-loaded film, as well as having “blank” layers on the bottom of the device to maintain device structure through the third drug pulse.

[6] = multilayer film, alternating 0.1 mm drug-loaded and 0.4 mm blank layers

T1 sequence (P28223 whole entry): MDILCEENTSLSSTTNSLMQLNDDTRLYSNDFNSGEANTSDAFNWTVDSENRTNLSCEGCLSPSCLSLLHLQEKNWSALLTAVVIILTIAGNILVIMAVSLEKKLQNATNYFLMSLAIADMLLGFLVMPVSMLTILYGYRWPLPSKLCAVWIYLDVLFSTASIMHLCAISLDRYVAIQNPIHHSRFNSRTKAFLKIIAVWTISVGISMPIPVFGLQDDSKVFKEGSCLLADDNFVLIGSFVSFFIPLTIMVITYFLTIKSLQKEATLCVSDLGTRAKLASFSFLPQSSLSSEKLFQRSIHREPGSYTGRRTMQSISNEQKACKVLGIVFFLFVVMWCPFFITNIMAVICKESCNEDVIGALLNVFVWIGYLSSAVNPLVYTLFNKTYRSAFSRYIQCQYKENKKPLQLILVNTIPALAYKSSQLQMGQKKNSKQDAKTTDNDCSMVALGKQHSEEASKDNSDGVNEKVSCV

Structure (SMILES): CCN(CC)C(=O)[C@@H]1C=C2c3cccc4c3c(cn4C(=O)C3CC3)C[C@H]2N(C)C1 [1cp-LSD, N1-(cyclopropylmethanoyl)-lysergic acid diethylamide]
- calcium flux downstream of 5HT2A receptor activation (5HT2A receptor): significant induction of calcium

Structure (SMILES): CC(=O)Oc1cccc2[nH]cc(CCN(C)C)c12 [4-acetoxy DMT, O-acetylpsilocin]
- release rate compared with Rhodamine dye [1]: very similar rate

Structure (SMILES): COc1cc(CC(C)N)c(OC)cc1I (stereo not drawn) [DOI, 2,5-dimethoxy-4-iodoamphetamine]
- time by which cleared from plasma, brain, liver, and kidneys [2]: ~12 h
- time of peak concentration in brain, liver, and kidneys [2]: 2 to 4 h
- time of peak concentration in plasma [2]: 2 h
- detection in blood ([3]; 8 hrs post-implantation): consistently detected
- time at which blood concentration returned to baseline ([3]; remained at baseline through 24 hrs): ≤ 16 h
- concentration profile in brain, liver, and kidneys [4]: matched the pulsed profile of the blood plasma
- time of peak plasma concentration, first pulse ([4]; post-implantation): ~2 h
- time of peak plasma concentration, second pulse ([4]; post-implantation): ~12 h
- time of peak plasma concentration, third pulse ([4]; post-implantation): ~24 h
- calcium flux downstream of 5HT2A receptor activation (5HT2A receptor): significant induction of calcium
- release rate compared with Rhodamine dye [1]: very similar rate

Structure (SMILES): CCN(CC)c1ccc2c(-c3ccccc3C(=O)O)c3ccc(=[N+](CC)CC)cc-3oc2c1 [Rhodamine, rhodamine B]
- time of peak of first drug pulse [5, 6]: 16 h
- time of peak of second drug pulse [5, 6]: 72 h
- time of peak of third drug pulse [5, 6]: ~120 h
- spacing between three intermittent drug pulses ([5]; second generation design, two blank layers between drug-loaded films and blank layers at bottom): ~70 h
- time to complete release ([1]; from 0.1 mm thick single-layered CAPP film): ~18 h
- time to complete release ([1]; from 0.2 mm thick single-layered CAPP film): ~36 h
- time to complete release ([1]; from 0.3 mm thick single-layered CAPP film): ~60 h
- time to complete release ([1]; from 0.4 mm thick single-layered CAPP film): ~78 h
